Measurements: US7109294B2, “Bacterial glycosyltransferase polypeptides involved in antibiotic resistance” (priority 2001, dated 2006)
“Also recorded” adds a separate entry of the source.

Legend:
Format in all cases: cell-based, Pseudomonas aeruginosa
[1] = tested on: 45E7 mutant colony biofilm
[2] = tested on: 30B1 mutant colony biofilm
[3] = tested on: 45E7 mutant flow cell biofilm

For NC[C@H]1O[C@H](O[C@H]2[C@H](O)[C@@H](O[C@H]3O[C@H](CO)[C@@H](O)[C@H](N)[C@H]3O)[C@H](N)C[C@@H]2N)[C@H](N)C[C@@H]1O [Tb, tobramycin], the “resistance of colony biofilm cells” value [1] was “as resistant to the effects of Tb as the wild type”, the “viable cells in colony biofilm” value [1] was “below detection; also recorded: no viable cells were detected” and the “drop in viable count in colony biofilm” value [2] was ~10^9. For the same compound, the “viable cells in colony biofilm” value [2] was “below detection; also recorded: no viable cells detected” and the “live versus dead cells in Tb-treated biofilm (BacLight)” value [3] was “more dead cells than live ones”.
